Assay results reported in US10112977B2, “Peptide for inducing multinucleation in cells, and use therefor” (Toagosei Co., Ltd., priority 2014, dated 2018).
Values joined by “and” are separate entries in the source; they are usually repeats but may differ in a detail not shown here. Identical values can stand only once. Peptide text beside a SMILES is read from it.

Assays:
HeLa S3 cells [1] = assay: Evaluation test 2 of multinucleation-inducing activity (multinucleation induction ratio); format: cell-based, human; conditions: 50 μM peptide, 4 days; for number of multinuclear cells (number): cells with two or more nuclei in 1 field of vision, individual test; for multinucleation induction ratio (%): individual test (1 field of vision)
Protocol: The multinucleation induction ratio was determined for the multinucleation-inducing synthetic peptides (sample 1 and sample 2) obtained in Example 1. The same HeLa S3 cells as in Example 2 were used for the sample cells. The evaluation test is described in the following.
HeLa S3 cells were seeded into each well of an 8-chamber (well) cell culture slide (also referred to as a chamber) to provide approximately 0.5×10^3 cells per well and were cultured overnight in an incubator under conditions of 5% CO2 and 37° C. The medium used was a common DMEM medium, i.e., DMEM (Wako Pure Chemical industries, Ltd., Cat. No. 043-30085) containing 10% FBS, 100 units/mL of penicillin, and 100 μg/mL of streptomycin. After this overnight culture, the medium in the culture chamber was exchanged for medium obtained by the addition of sample 1 or sample 2 in an amount giving a peptide concentration of 50 μM to DMEM medium prepared by adding 3% FBS, 100 units/mL of penicillin, and 100 μg/mL of streptomycin to the aforementioned DMEM, and subculturing was carried out by culture for 4 days under the same conditions. The control group was a peptide-free group in which only PBS (−) was added in the same volume as the peptide stock solution that was added in the sample addition groups.
After completion of the culture period, the cells in the test groups were subjected to cytoimmunostaining of a cytoplasm marker (calreticulin) nuclear staining as in Example 2. After the execution of the cytoimmunostaining and nuclear staining, the cells each test group were subjected to fluorescence observation using a confocal laser microscope and, for the cells observed in 1 field of vision, the total number of cells and the number of cells presenting two or more nuclei (number of multinucleated cells) were counted. The multinucleation induction ratio (proportion (%) for the number of cells having two or more nuclei with reference to the total number of cells observed in 1 field of vision in the microscopic observation) was calculated using the following formula: multinucleation induction ratio (%)=(number of cells having two or more nuclei)÷(total number of cells)×100. Using these conditions air the evaluation test for the multinucleation induction ratio, the test was carried out independently three times and the average multinucleation induction ratio was calculated by taking the average of the multinucleation induction ratios obtained in the individual tests.

HeLa S3 cells [2] = assay: Evaluation test 1 of multinucleation-inducing activity (calreticulin cytoimmunostaining and DAPI nuclear staining, confocal fluorescence observation); format: cell-based, human; conditions: peptide concentration 50 μM, culture for 4 days
Protocol: To evaluate the multinucleation-inducing activity of the multinucleation-inducing synthetic peptides (sample 1 and sample 2) obtained in Example 1, cytoimmunostaining (fluorescence immunostaining) was performed using calreticulin as the cytoplasm marker and nuclear staining was performed with DAPI (4′,6-diamidino-2-phenylindole). HeLa S3 cells (ATCC (registered trademark), CCL2.2), a cultured cell strain originating from human cervical cancer, were used as the sample cells. The evaluation test is described in the following.
HeLa S3 cells were seeded into each well of a 4-chamber (well) cell culture slide (also referred to as a chamber) to provide approximately 1×10^3 cells per well and were cultured overnight in an incubator under conditions of 5% CO2 and 37° C. The medium used was a common DMEM medium, i.e., DMEM (Wako Pure Chemical Industries, Ltd., Cat. No. 043-30085) containing 10% […], 100 units/mL of penicillin, and 100 μg/mL of streptomycin. After this overnight culture, the medium in the culture chamber was exchanged for medium obtained by the addition, to the aforementioned DMEM medium containing PBS, penicillin and streptomycin, of the sample 1, sample 2, or sample 3 peptide in an amount providing a peptide concentration of 50 μM, and subculturing was carried out by culture for 4 days under the same conditions. The control group was a peptide-free group in which only PBS (−) was added in the same volume as the peptide stock solution that was added in the sample addition groups.
After completion of the culture period, the status of multinucleation in the cells in each test group was observed using the following cytoimmunostaining.
The cells in each test group wore first fixed followed by a blocking treatment. Specifically, the medium in the culture chamber in the test group was first removed and washing was carried out twice with cold PBS (−). A solution prepared by mixing 1 volume of methanol with 1 volume of acetone (methanol/acetone=1:1 solution) was then added and the HeLa S3 cells were fixed by standing for 15 minutes on ice. The methanol/acetone=1:1 solution was then removed acid washing was carried out three times with cold PBS PBS (−) containing 3% BSA (PBS (−) that contained 3% BSA) was added and a blocking treatment was carried out for 1 hour at room temperature. After the passage of the prescribed period of time, the PBS (−) containing 3% BSA was removed and washing with cold PBS (−) was performed three times. […]
The cells in each test group that had been subjected to this cytoimmunostaining were mounted using a cover glass and Slow Fade (Life Technologies Corporation, Cat. No. S36936), which is a DAPI-containing mountant, and fluorescence observation was performed using a confocal laser microscope. […]

Compound | number of multinuclear cells (number) (HeLa S3 cells [1]) | multinucleation induction ratio (%) (HeLa S3 cells [1]) | cells in which a plurality of nuclei had formed (induction of multinucleation), fluorescence observation (HeLa S3 cells [2]) | number of nuclei per multinucleated cell, compared with sample 2 addition group (HeLa S3 cells [2]) | average multinucleation induction ratio (%) (HeLa S3 cells [1]; average of three independent tests)
CC(C)C[C@H](NC(=O)[C@@H](NC(=O)[C@H](CCCNC(=N)N)NC(=O)[C@H](CCCCN)NC(=O)[C@@H](N)CCCCN)[C@@H](C)O)C(=O)N[C@@H](CCCNC(=N)N)C(=O)N[C@@H](CCCCN)C(=O)N[C@@H](CC(N)=O)C(=O)N[C@@H](CC(=O)O)C(=O)N[C@@H](CCCNC(=N)N)C(=O)N[C@@H](CCCCN)C(=O)N[C@@H](CCCCN)C(=O)N[C@@H](CCCNC(=N)N)C(=O)NCC(=O)NCC(=O)N[C@@H](CS)C(=O)N1CCC[C@H]1C(=O)N[C@@H](CC(=O)O)C(=O)NCC(=O)N[C@@H](C)C(=O)N[C@@H](CCCCN)C(=O)N[C@@H](C)C(=O)N[C@@H](CCCNC(=N)N)C(=O)N[C@@H](CS)C(=O)O [sample 1, KKRTLRKNDRKKR GG CPDGAKARC] (H-KKRTLRKNDRKKRGGCPDGAKARC-OH; N-terminus and C-terminus assumed) | 12 number and 11 number and 13 number | 41.4% and 39.3% and 41.9% | cells in which a plurality of nuclei had formed were observed | significantly larger number of nuclei per cell | 
CC(C)C[C@H](NC(=O)[C@@H](NC(=O)[C@H](CCCNC(=N)N)NC(=O)[C@H](CCCCN)NC(=O)[C@@H](N)CCCCN)[C@@H](C)O)C(=O)N[C@@H](CCCNC(=N)N)C(=O)N[C@@H](CCCCN)C(=O)N[C@@H](CC(N)=O)C(=O)N[C@@H](CC(=O)O)C(=O)N[C@@H](CCCNC(=N)N)C(=O)N[C@@H](CCCCN)C(=O)N[C@@H](CCCCN)C(=O)N[C@@H](CCCNC(=N)N)C(=O)NCC(=O)NCC(=O)N[C@@H](CS)C(=O)N[C@@H](CO)C(=O)N[C@@H](CCCNC(=N)N)C(=O)N[C@@H](CCCNC(=N)N)C(=O)N[C@@H](CO)C(=O)N[C@@H](CCCCN)C(=O)N[C@@H](CO)C(=O)N[C@@H](CCCCN)C(=O)N[C@@H](CS)C(=O)O [sample 2, KKRTLRKNDRKKR GG CSRRSKSKC] (H-KKRTLRKNDRKKRGGCSRRSKSKC-OH; N-terminus and C-terminus assumed) | 9 number and 12 number and 11 number | 30.0% and 37.5% and 39.3% | cells in which a plurality of nuclei had formed were observed |  | 35.6%
KKRTLRKNDRKKR (listed as Homo sapiens) [sample 3, reference compound] |  |  | cells in which a plurality of nuclei had formed were not observed |  | 
